# Legend:
# RAW264.7 cells = assay: iNOS and COX-2 expression after LPS (Western blot); format: cell-based; settings: 3 h pretreatment (Table 3 amounts), LPS 1 μg/ml 24 h
# Method in brief: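 RAW264.7 or BV2 cells (5×10^5 cells/well) in DMEM with 10% FBS were pretreated with compound, then stimulated with 1 μg/ml LPS for 24 h. iNOS and COX-2 expression by Western blot; NO and PGE2 production measured. Compound toxicity checked by MTT.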
# PON2 mRNA = assay: Relative expression level of PON2 mRNA in liver of DIO mice (real-time PCR); format: in vivo, C57BL/6J DIO mice; settings: 100 mg/kg orally once daily for 6 weeks, 60% fat diet, FIG. 1a
# Experimental: 14-Week-old C57BL/6J DIO (Diet Induced Obesity) mice (The Jackson Laboratory, USA) were purchased. The normal control group was fed a 10% fat diet for 3 weeks, and the DIO control group was fed a 60% fat diet for 3 weeks. In addition, the Formula III-1 compound-administered group was fed a 60% fat diet for 3 weeks, and then 100 mg/kg of the compound of Formula III-1 was orally administered thereto once daily for 6 weeks.
# The mice of the normal control group, the DIO control group and the Formula III-1 compound-administered group were euthanized, and the liver tissues were extracted therefrom, washed with a PBS solution containing PIC (protease inhibitor cocktail), sectioned to a size of 0.2 to 0.5 g, and stored at −196° C. until the experiment.
# The following experiment was conducted using the liver tissue sections from the normal control group, the DIO control group and the Formula III-1 compound-administered group.
# The relative expression level of PON2 mRNA was analyzed using real-time PCR. Specifically, trizol (Invitrogen, Carlsbad, Calif., USA) was added to the liver tissue which was then minced using a homogenizer, and total RNA was extracted therefrom. […]
# BV2 cells = assay: Transcription of NF-κB protein (p65, p50) into nucleus after LPS (Western blot); format: cell-based; settings: 3 h pretreatment (Table 3 amounts), LPS 1 μg/ml 1 h
# Method in brief: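 Cells (5×10^5/well) cultured in DMEM with 10% FBS at 37° C, 5% CO2, pretreated with compound, then stimulated with 1 μg/ml LPS for 1 hour. Nuclear levels of p65 and p50 measured by Western blot.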
structure (smiles),measurement,setting,value
"CCOc1ccc(C2COc3c(ccc4c3CCC(C)(C)O4)C2)c(O)c1 (centres unmarked) [Formula III-1, 2-(8,8-dimethyl-2,3,4,8,9,10-hexahydropyrano[2,3-f]chromen-3-yl)-5-ethoxyphenol]",expression level of COX-2,RAW264.7 cells,concentration-dependently decreased
same,expression level of iNOS,RAW264.7 cells,concentration-dependently decreased
same,expression level of PON2 mRNA compared with normal control group,PON2 mRNA,higher
same,"level of transcription of NF-κB protein into the nucleus, p50",BV2 cells,concentration-dependently decreased
same,"level of transcription of NF-κB protein into the nucleus, p65",BV2 cells,concentration-dependently decreased
